Reference: patent publication US9062078B2, “Substituted 7-azabicyles and their use as orexin receptor modulators” (priority 2013, dated 2015)
Like-named read-outs stand apart in the source and are kept apart here.

Legend:
rat orexin 1 receptor = rat orexin 1 receptor (Rattus norvegicus, UniProt P56718); test: Rat orexin 1 receptor radioligand binding (competitive, [3H]-SB674042, HEK293 cell preparations)
human orexin 1 receptor = human orexin 1 receptor (Homo sapiens (Human), UniProt O43613); test: Human orexin 1 receptor radioligand binding (competitive, [3H]-SB674042, CHO cell preparations)
human orexin 1 receptor, sequence (O43613 whole entry): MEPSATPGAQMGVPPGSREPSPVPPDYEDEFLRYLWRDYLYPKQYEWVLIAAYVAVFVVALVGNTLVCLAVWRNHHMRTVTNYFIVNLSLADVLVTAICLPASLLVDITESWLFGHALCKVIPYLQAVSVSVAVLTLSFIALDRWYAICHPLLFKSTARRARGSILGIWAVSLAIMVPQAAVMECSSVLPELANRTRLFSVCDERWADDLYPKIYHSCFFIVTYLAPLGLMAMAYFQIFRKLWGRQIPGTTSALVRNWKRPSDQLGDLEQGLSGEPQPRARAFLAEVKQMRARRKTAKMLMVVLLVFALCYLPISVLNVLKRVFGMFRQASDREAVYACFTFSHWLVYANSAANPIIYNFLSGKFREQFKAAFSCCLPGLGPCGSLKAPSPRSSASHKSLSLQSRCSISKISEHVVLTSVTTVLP

human orexin 2 receptor = human orexin 2 receptor (Homo sapiens (Human), UniProt O43614); test: Human orexin 2 receptor radioligand binding (competitive, [3H]-EMPA, HEK293 cell preparations)
human orexin 2 receptor, sequence (O43614 whole entry): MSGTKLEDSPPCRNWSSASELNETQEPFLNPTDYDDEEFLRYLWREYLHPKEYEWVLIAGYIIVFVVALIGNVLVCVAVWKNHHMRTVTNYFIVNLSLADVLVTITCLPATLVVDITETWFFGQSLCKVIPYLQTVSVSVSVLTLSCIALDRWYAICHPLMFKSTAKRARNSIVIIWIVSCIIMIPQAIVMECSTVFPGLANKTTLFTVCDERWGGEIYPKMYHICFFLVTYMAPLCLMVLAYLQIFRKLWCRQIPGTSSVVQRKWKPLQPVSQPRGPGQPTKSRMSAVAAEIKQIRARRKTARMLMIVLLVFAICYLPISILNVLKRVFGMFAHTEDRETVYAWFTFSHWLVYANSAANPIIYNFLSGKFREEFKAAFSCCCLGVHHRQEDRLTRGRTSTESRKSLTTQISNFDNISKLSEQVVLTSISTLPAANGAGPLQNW

[1] = rat orexin 1 receptor, [3H]-SB674042 competition binding, read-out: rOX1 Ki (nm)
[2] = human orexin 1 receptor, [3H]-SB674042 competition binding, read-out: hOX1 Ki (nm)
[3] = human orexin 2 receptor, [3H]-EMPA competition binding, read-out: hOX2 Ki (nm)

Row | SMILES | Ki (human orexin 1 receptor; hOX1 Ki (nm)) [nM] | Ki (human orexin 2 receptor; hOX2 Ki (nm)) [nM] | Ki (human orexin 1 receptor; [2]) [nM] | Ki (human orexin 2 receptor; [3]) [nM] | also measured
1 | Cc1ccc(-c2ncccn2)c(C(=O)N2C3CCC2C(COc2ccccn2)C3)n1 (racemic) [Example 2, (±)-(6-methyl-3-(pyrimidin-2-yl)pyridin-2-yl)(2-((pyridin-2-yloxy)methyl)-7-azabicyclo[2.2.1]heptan-7-yl)methanone] | 23 | 500 |  |  | Ki (rat orexin 1 receptor; rOX1 Ki (nm)): 31 nM
2 | Cc1ccc(-c2ncccn2)c(C(=O)N2C3CCC2C(COc2ccc(F)cn2)C3)c1 (racemic) [Example 33, (±)-(2-(((5-fluoropyridin-2-yl)oxy)methyl)-7-azabicyclo[2.2.1]heptan-7-yl)(5-methyl-2-(pyrimidin-2-yl)phenyl)methanone] |  |  | 9 | 39 | Ki (rat orexin 1 receptor; [1]): 15 nM
3 | O=C(c1c(F)cccc1-n1nccn1)N1C2CCC1C(COc1cnc3ccccc3n1)C2 (racemic) [Example 35, (±)-(2-fluoro-6-(2H-1,2,3-triazol-2-yl)phenyl)(2-((quinoxalin-2-yloxy)methyl)-7-azabicyclo[2.2.1]heptan-7-yl)methanone] |  |  | 58 | 693 | Ki (rat orexin 1 receptor; [1]): 69 nM
4 | Cc1ccc(-n2nccn2)c(C(=O)N2C3CCC2C(COc2ccc(Br)cn2)C3)n1 (racemic) [Example 49, (±)-(2-(((5-bromopyridin-2-yl)oxy)methyl)-7-azabicyclo[2.2.1]heptan-7-yl)(6-methyl-3-(2H-1,2,3-triazol-2-yl)pyridin-2-yl)methanone] | 69 |  |  | 192 | Ki (rat orexin 1 receptor; rOX1 Ki (nm)): 81 nM
5 | Cc1ccc(-n2nccn2)c(C(=O)N2C3CCC2C(COc2ncccc2C)C3)n1 (racemic) [Example 55, (±)-(6-methyl-3-(2H-1,2,3-triazol-2-yl)pyridin-2-yl)(2-(((3-methylpyridin-2-yl)oxy)methyl)-7-azabicyclo[2.2.1]heptan-7-yl)methanone] | 150 |  |  | 202 | Ki (rat orexin 1 receptor; rOX1 Ki (nm)): 119 nM
6 | Cc1ccc(-n2nccn2)c(C(=O)N2C3CCC2C(COc2cccnc2)C3)n1 (racemic) [Example 58, (±)-(6-methyl-3-(2H-1,2,3-triazol-2-yl)pyridin-2-yl)(2-((pyridin-3-yloxy)methyl)-7-azabicyclo[2.2.1]heptan-7-yl)methanone] | 117 |  |  | 2400 | Ki (rat orexin 1 receptor; rOX1 Ki (nm)): 88 nM
7 | Cc1cccc(OCC2CC3CCC2N3C(=O)c2nc(C)ccc2-n2nccn2)n1 (racemic) [Example 62, (±)-(6-methyl-3-(2H-1,2,3-triazol-2-yl)pyridin-2-yl)(2-(((6-methylpyridin-2-yl)oxy)methyl)-7-azabicyclo[2.2.1]heptan-7-yl)methanone] |  | 188 | 46 |  | Ki (rat orexin 1 receptor; [1]): 74 nM
8 | Cc1ccc(-c2ncco2)c(C(=O)N2C3CCC2C(COc2ccc(F)cn2)C3)n1 (racemic) [Example 63, (±)-(2-(((5-fluoropyridin-2-yl)oxy)methyl)-7-azabicyclo[2.2.1]heptan-7-yl)(6-methyl-3-(oxazol-2-yl)pyridin-2-yl)methanone] |  |  | 25 | 339 | Ki (rat orexin 1 receptor; [1]): 25 nM
9 | Cc1ccc(-c2ncccn2)c(C(=O)N2C3CCC2C(COc2ccc(F)cn2)C3)n1 (racemic) [Example 64, (±)-(2-(((5-fluoropyridin-2-yl)oxy)methyl)-7-azabicyclo[2.2.1]heptan-7-yl)(6-methyl-3-(pyrimidin-2-yl)pyridin-2-yl)methanone] |  |  | 24 | 81 | Ki (rat orexin 1 receptor; [1]): 18 nM
10 | CCOc1ncc2ccccc2c1C(=O)N1C2CCC1C(COc1ccccn1)C2 (racemic) [Example 83, (±)-(3-ethoxyisoquinolin-4-yl)(2-((pyridin-2-yloxy)methyl)-7-azabicyclo[2.2.1]heptan-7-yl)methanone] | 12 |  |  |  | Ki (rat orexin 1 receptor; rOX1 Ki (nm)): 17 nM
11 | O=C(c1cc(F)ccc1-n1nccn1)N1C2CCC1C(COc1cnc3ccccc3n1)C2 (racemic) [Example 166, (±)-(5-fluoro-2-(2H-1,2,3-triazol-2-yl)phenyl)(2-((quinoxalin-2-yloxy)methyl)-7-azabicyclo[2.2.1]heptan-7-yl)methanone] |  |  | 106 | 1140 | 
12 | Cc1ccc(OCC2CC3CCC2N3C(=O)c2cc(C)ccc2-n2nccn2)nc1 (racemic) [Example 167, (±)-5-methyl-2-(2H-1,2,3-triazol-2-yl)phenyl)(2-(((5-methylpyridin-2-yl)oxy)methyl)-7-azabicyclo[2.2.1]heptan-7-yl)methanone] |  | 14 | 9 |  | 
13 | Cc1ccc(C(=O)N2C3CCC2C(COc2cnc4ccccc4n2)C3)c(-n2nccn2)n1 (racemic) [Example 168, (±)-(6-methyl-2-(2H-1,2,3-triazol-2-yl)pyridin-3-yl)(2-((quinoxalin-2-yloxy)methyl)-7-azabicyclo[2.2.1]heptan-7-yl)methanone] |  | 7300 | 2300 |  | 
14 | O=C(c1cc(F)ccc1-n1nccn1)N1C2CCC1C(CNc1ccccn1)C2 (racemic) [Example 169, (±)-(5-fluoro-2-(2H-1,2,3-triazol-2-yl)phenyl)(2-((pyridin-2-ylamino)methyl)-7-azabicyclo[2.2.1]heptan-7-yl)methanone] |  |  | 9000 | 2530 | 
15 | Cc1cc(C)nc(NCC2CC3CCC2N3C(=O)c2cc(F)ccc2-n2nccn2)n1 (racemic) [Example 170, (±)-(2-(((4,6-dimethylpyrimidin-2-yl)amino)methyl)-7-azabicyclo[2.2.1]heptan-7-yl)(5-fluoro-2-(2H-1,2,3-triazol-2-yl)phenyl)methanone] |  | 512 | 1960 |  | 
16 | Cc1ccc(-n2nccn2)c(C(=O)N2C3CCC2C(COc2cc(C)nc(C(F)(F)F)n2)C3)c1 (racemic) [Example 180, (±)-(5-methyl-2-(2H-1,2,3-triazol-2-yl)phenyl)(2-(((6-methyl-2-(trifluoromethyl)pyrimidin-4-yl)oxy)methyl)-7-azabicyclo[2.2.1]heptan-7-yl)methanone] | 33 |  |  | 32 | 
17 | O=C(c1ccccc1-n1nccn1)N1C2CCC1C(Nc1cnc(C(F)(F)F)cn1)C2 (racemic) [Example 182, (±)-((2-(2H-1,2,3-triazol-2-yl)phenyl)(2-((5-(trifluoromethyl)pyrazin-2-yl)amino)-7-azabicyclo[2.2.1]heptan-7-yl)methanone] | 38 | 1100 |  |  | 
18 | Cc1cc(C)nc(NC2CC3CCC2N3C(=O)c2cc(F)ccc2-n2nccn2)n1 (racemic) [Example 197, (±)-(2-((4,6-dimethylpyrimidin-2-yl)amino)-7-azabicyclo[2.2.1]heptan-7-yl)(5-fluoro-2-(2H-1,2,3-triazol-2-yl)phenyl)methanone] | 9000 | 862 |  |  | 
19 | Cc1cc(C)nc(NC2CC3CCC2N3C(=O)c2c(F)cccc2-n2nccn2)n1 (racemic) [Example 198, (±)-(2-((4,6-dimethylpyrimidin-2-yl)amino)-7-azabicyclo[2.2.1]heptan-7-yl)(2-fluoro-6-(2H-1,2,3-triazol-2-yl)phenyl)methanone] | 1410 |  |  | 704 | 
20 | Cc1cc(C)nc(NC2CC3CCC2N3C(=O)c2ccc(F)cc2-n2nccn2)n1 (racemic) [Example 199, (±)-(2-((4,6-dimethylpyrimidin-2-yl)amino)-7-azabicyclo[2.2.1]heptan-7-yl)(4-fluoro-2-(2H-1,2,3-triazol-2-yl)phenyl)methanone] |  |  | 1630 | 553 | 
21 | O=C(c1ccccc1-c1cccs1)N1[C@@H]2CC[C@H]1[C@H](COc1ccc(F)cn1)C2 (single isomer, unassigned) [Example 12A, ((1S*,2R*,4R*)-2-(((5-fluoropyridin-2-yl)oxy)methyl)-7-azabicyclo[2.2.1]heptan-7-yl)(2-(thiophen-2-yl)phenyl)methanone] | 177 | 339 |  |  | 
22 | O=C(c1ccccc1-c1cccs1)N1[C@H]2CC[C@@H]1[C@@H](COc1ccc(F)cn1)C2 (single isomer, unassigned) [Example 12B, ((1R*,2S*,4S*)-2-(((5-fluoropyridin-2-yl)oxy)methyl)-7-azabicyclo[2.2.1]heptan-7-yl)(2-(thiophen-2-yl)phenyl)methanone] | 3 | 5 |  |  | 
23 | O=C(c1ccccc1-n1nccn1)N1C2CCC1C(Nc1cnc(C(F)(F)F)cn1)C2 (single isomer, unassigned) [Example 183b] | 28 | 700 |  |  | 
24 | CCOc1ncc2ccccc2c1C(=O)N1[C@@H]2CC[C@H]1[C@H](COc1ccccn1)C2 [Example 164, (3-ethoxyisoquinolin-4-yl)((1S,2R,4R)-2-((pyridin-2-yloxy)methyl)-7-azabicyclo[2.2.1]heptan-7-yl)methanone] |  |  |  |  | Ki (rat orexin 1 receptor; read-out: rOX1 Ki (nm)): 9 nM; Ki (human orexin 1 receptor; read-out: hOX1 Ki (nm)): 7 nM
25 | O=C(c1ccccc1-n1nccn1)N1[C@@H]2CC[C@H]1[C@H](Nc1cnc(C(F)(F)F)cn1)C2 [Example 181, (2-(2H-1,2,3-triazol-2-yl)phenyl)((1S,2R,4R)-2-((5-(trifluoromethyl)pyrazin-2-yl)amino)-7-azabicyclo[2.2.1]heptan-7-yl)methanone] | 28 | 700 |  |  | 
26 | Cc1noc(-c2c(F)cccc2C(=O)N2[C@@H]3CC[C@H]2[C@H](Nc2cnc(C(F)(F)F)cn2)C3)n1 [Example 254, (3-fluoro-2-(3-methyl-1,2,4-oxadiazol-5-yl)phenyl)((1S,2R,4R)-2-((5-(trifluoromethyl)pyrazin-2-yl)amino)-7-azabicyclo[2.2.1]heptan-7-yl)methanone] |  |  |  | 377 | Ki (human orexin 1 receptor; read-out: hOX1 Ki (nm)): 20 nM
27 | O=C(c1ccc(F)cc1-n1nccn1)N1[C@@H]2CC[C@H]1[C@H](Nc1cnc(C(F)(F)F)cn1)C2 [Example 257, (4-fluoro-2-(2H-1,2,3-triazol-2-yl)phenyl)((1S,2R,4R)-2-((5-(trifluoromethyl)pyrazin-2-yl)amino)-7-azabicyclo[2.2.1]heptan-7-yl)methanone] |  |  | 102 | 3200 | 
